Results taken from US8143393B2, “Substituted 4-amino-pyrrolotriazine derivatives useful for treating hyper-proliferative disorders and diseases associated with angiogenesis” (Bayer HealthCare LLC, priority 2005, dated 2012).

Molecular target: T1, FGFR-1 (Homo sapiens, UniProt P11362)
T1 construct: GST; made in house
Assay: FGFR-1 TR-FRET biochemical assay
Details: 0.6 uM ATP, 5 nM FGFR1-GST; bounds given in nM
Protocol: FGFR-1TR-FRET Biochemical Assay
The FGFR-1 Assay was performed on half well 96-well opaque plates (Costar 3915) in a LANCE format. LANCE is a homogenous time resolved fluormetry based application available through Perkin Elmer. For this assay, 50 uL reactions were set up using: 0.6 uM ATP (Sigma), 25 nM poly GT-biotin (CIS BIO International), 2 nM Eu-labelled phospho-Tyr Ab (PY20 PerkinElmer), 10 nM Streptavidin-APC (Perkin Elmer), 5 nM FGFR1-GST (generated by DRT, Bayer Healthcare), 1% DMSO, 50 mM HEPES pH 7.5, 10 mM MgCl2, 0.1 mM EDTA, 0.015% Brij, 0.1 mg/ml BSA, 0.1% B-mercaptoethanol. All reactions were initiated with the addition of enzyme and were left to incubate for one hour at room temperature. Time-resolved fluorescence was then read on a Perkin Elmer VictorV Multilabel counter. The reading protocol uses an excitation wavelength at 340 nm and emission reads at both 615 and 665 nm. Signal was calculated as a ratio: (Flourescence at 665 nm/Flourescence at 615 nM)*10000 for each well. The background control used for this assay is the signal produced with all assay components excluding ATP. For IC50 generation, compounds were added prior to the enzyme initiation. A 50-fold stock plate was made with compounds serially diluted 1:5 in a 50% DMSO/50% dH2O solution. A 1 μL addition of the stock to the assay wells gave final compound concentrations ranging from 10 μM-0.128 nM in 1% DMSO. The data were expressed as percent inhibition: % inhibition=100−((Signal with inhibitor−background)/(Signal without inhibitor−background))*100.

T1 sequence (P11362 22-822): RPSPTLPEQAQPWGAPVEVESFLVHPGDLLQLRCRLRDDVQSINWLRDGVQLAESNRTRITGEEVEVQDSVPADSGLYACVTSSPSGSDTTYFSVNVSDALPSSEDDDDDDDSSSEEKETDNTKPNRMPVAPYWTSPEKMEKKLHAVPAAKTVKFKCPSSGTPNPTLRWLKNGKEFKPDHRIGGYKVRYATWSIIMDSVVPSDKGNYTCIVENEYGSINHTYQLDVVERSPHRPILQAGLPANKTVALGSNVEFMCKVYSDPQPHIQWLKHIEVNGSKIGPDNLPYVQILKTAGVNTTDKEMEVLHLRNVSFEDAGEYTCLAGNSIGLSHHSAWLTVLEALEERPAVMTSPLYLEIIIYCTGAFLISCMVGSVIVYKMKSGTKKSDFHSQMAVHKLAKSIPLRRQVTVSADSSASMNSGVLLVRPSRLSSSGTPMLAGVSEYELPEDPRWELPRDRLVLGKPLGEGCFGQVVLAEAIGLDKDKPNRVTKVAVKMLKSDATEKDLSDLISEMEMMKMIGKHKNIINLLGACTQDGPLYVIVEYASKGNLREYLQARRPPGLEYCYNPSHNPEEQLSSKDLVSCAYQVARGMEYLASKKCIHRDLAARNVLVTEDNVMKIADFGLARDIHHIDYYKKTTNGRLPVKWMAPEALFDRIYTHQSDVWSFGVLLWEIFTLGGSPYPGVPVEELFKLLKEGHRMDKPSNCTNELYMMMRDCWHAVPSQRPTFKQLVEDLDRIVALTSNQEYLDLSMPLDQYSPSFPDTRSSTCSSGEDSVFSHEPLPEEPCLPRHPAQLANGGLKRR

SMILES | IC50 [nM]
CC(C)(C)c1cc(NC(=O)Nc2ccc(-c3cc(CN4CCOCC4)n4ncnc(N)c34)cc2)on1 [Example 2, N-{4-[4-amino-7-(morpholin-4-ylmethyl)pyrrolo[2,1-f][1,2,4]triazin-5-yl]phenyl}-N′-(3-tert-butylisoxazol-5-yl)urea] | < 10
Nc1ncnn2c(CN3CCOCC3)cc(-c3cc(F)c(NC(=O)Nc4cc(C(F)(F)F)ccc4F)c(F)c3)c12 [Example 7, N-{4-[4-amino-7-(morpholin-4-ylmethyl)-pyrrolo[2,1-f][1,2,4]triazin-5-yl]-2,6-difluorophenyl}-N′-[Z-fluoro-5-(trifluoro-methyl)phenyl]urea] | > 100
Nc1ncnn2c(CN3CCOCC3)cc(-c3ccc(NC(=O)Nc4cc(C(F)(F)F)ccc4F)nc3)c12 [Example 9, N-{5-[4-amino-7-(morpholin-4-ylmethyl)pyrrolo[2,1-f][1,2,4]triazin-5-yl]pyridin-2-yl}-N′-[2-fluoro-5-(trifluoromethyl)phenyl]urea] | < 10
Nc1ncnn2c(CN3CCOCC3)cc(-c3ccc(NC(=O)Nc4ccc(F)c(C(F)(F)F)c4)nc3)c12 [Example 18, N-{5-[4-amino-7-(morpholin-4-ylmethyl)pyrrolo[2,1-f][1,2,4]triazin-5-yl]pyridin-2-yl}-N′-[4-fluoro-3-(trifluoromethyl)phenyl]urea] | < 10
Nc1ncnn2c(CN3CCOCC3)cc(-c3ccc(NC(=O)Nc4ccc(Cl)c(C(F)(F)F)c4)nc3)c12 [Example 19, N-{5-[4-amino-7-(morpholin-4-ylmethyl)pyrrolo[2,1-f][1,2,4]triazin-5-yl]pyridin-2-yl}-N′-[4-chloro-3-(trifluoromethyl)phenyl]urea] | < 10
Nc1ncnn2c(CN3CCOCC3)cc(-c3ccc(NC(=O)Nc4cccc(C(F)(F)F)c4)nc3)c12 [Example 20, N-{5-[4-amino-7-(morpholin-4-ylmethyl)pyrrolo[2,1-f][1,2,4]triazin-5-yl]pyridin-2-yl}-N′-[3-(trifluoromethyl)phenyl]urea] | < 10
Nc1ncnn2c(CN3CCOCC3)cc(-c3ccc(NC(=O)Nc4cccc(C(F)(F)F)c4F)nc3)c12 [Example 21, N-{5-[4-amino-7-(morpholin-4-ylmethyl)pyrrolo[2,1-f][1,2,4]triazin-5-yl]pyridin-2-yl}-N′-[2-fluoro-3-(trifluoromethyl)phenyl]urea] | 10 to 100
Nc1ncnn2c(CN3CCOCC3)cc(-c3ccc(NC(=O)Nc4cc(F)cc(C(F)(F)F)c4)nc3)c12 [Example 22, N-{5-[4-amino-7-(morpholin-4-ylmethyl)pyrrolo[2,1-f][1,2,4]triazin-5-yl]pyridin-2-yl}-N′-[3-fluoro-5-(trifluoromethyl)phenyl]urea] | < 10
Cc1cc(-c2cc(CN3CCOCC3)n3ncnc(N)c23)ccc1NC(=O)Nc1ccc(F)c(C(F)(F)F)c1 [Example 27, N-{4-[4-amino-7-(morpholin-4-ylmethyl)pyrrolo[2,1-f][1,2,4]triazin-5-yl]-2-methylphenyl}-N′-[4-fluoro-3-(trifluoromethyl)phenyl]urea] | < 10
Cc1cc(-c2cc(CN3CCOCC3)n3ncnc(N)c23)ccc1NC(=O)Nc1cc(F)cc(C(F)(F)F)c1 [Example 28, N-{4-[4-amino-7-(morpholin-4-ylmethyl)pyrrolo[2,1-f][1,2,4]triazin-5-yl]-2-methylphenyl}-N′-[3-fluoro-5-(trifluoromethyl)phenyl]urea] | < 10
COc1cc(-c2cc(CN3CCOCC3)n3ncnc(N)c23)ccc1NC(=O)Nc1cc(C(C)(C)C)no1 [Example 30, N-{4-[4-amino-7-(morpholin-4-ylmethyl)pyrrolo[2,1-f][1,2,4]triazin-5-yl]-2-methoxyphenyl}-N′-(3-tert-butylisoxazol-5-yl)urea] | 10 to 100
COc1cc(-c2cc(CN3CCOCC3)n3ncnc(N)c23)ccc1NC(=O)Nc1ccc(F)c(C(F)(F)F)c1 [Example 32, N-{4-[4-amino-7-(morpholin-4-ylmethyl)pyrrolo[2,1-f][1,2,4]triazin-5-yl]-2-methoxyphenyl}-N′-[4-fluoro-3-(trifluoromethyl)phenyl]urea] | 10 to 100
COc1cc(-c2cc(CN3CCOCC3)n3ncnc(N)c23)ccc1NC(=O)Nc1cccc(OC(F)(F)F)c1 [Example 33, N-{4-[4-amino-7-(morpholin-4-ylmethyl)pyrrolo[2,1-f][1,2,4]triazin-5-yl]-2-methoxyphenyl}-N′-[3-(trifluoromethoxy)phenyl]urea] | 10 to 100
COc1cc(-c2cc(CN3CCOCC3)n3ncnc(N)c23)ccc1NC(=O)Nc1cc(C(F)(F)F)ccc1Cl [Example 35, N-{4-[4-amino-7-(morpholin-4-ylmethyl)pyrrolo[2,1-f][1,2,4]triazin-5-yl]-2-methoxyphenyl}-N′-[2-chloro-5-(trifluoromethyl)phenyl]urea] | 10 to 100
COc1cc(-c2cc(CN3CCOCC3)n3ncnc(N)c23)ccc1NC(=O)Nc1cc(C(F)(F)F)ccc1F [Example 36, N-{4-[4-amino-7-(morpholin-4-ylmethyl)pyrrolo[2,1-f][1,2,4]triazin-5-yl]-2-methoxyphenyl}-N′-[2-fluoro-5-(trifluoromethyl)phenyl]urea] | 10 to 100
Nc1ncnn2c(CN3CCNC(=O)C3)cc(-c3ccc(NC(=O)Nc4cc(C(F)(F)F)ccc4F)cc3)c12 [Example 39, N-(4-{4-amino-7-[(3-oxopiperazin-1-yl)methyl]pyrrolo[2,1-f][1,2,4]triazin-5-yl}phenyl)-N′-[2-fluoro-5-(trifluoromethyl)phenyl]urea] | < 10
Nc1ncnn2c(CN3CCNC(=O)C3)cc(-c3ccc(NC(=O)Nc4cc(C(F)(F)F)ccc4F)c(F)c3)c12 [Example 40, N-(4-{4-amino-7-[(3-oxopiperazin-1-yl)methyl]pyrrolo[2,1-f][1,2,4]triazin-5-yl}-2-fluorophenyl)-N′-[2-fluoro-5-(trifluoromethyl)phenyl]urea] | < 10
Nc1ncnn2c(CN3CCNC(=O)C3)cc(-c3ccc(NC(=O)Nc4cc(C(F)(F)F)ccn4)cc3)c12 [Example 41, N-(4-{4-amino-7-[(3-oxopiperazin-1-yl)methyl]pyrrolo[2,1-f][1,2,4]triazin-5-yl}phenyl)-N′-[4-(trifluoromethyl)pyridin-2-yl]urea] | < 10

Other lines, results leading:

IC50 [nM] | SMILES
< 10 | Nc1ncnn2c(CN3CCOCC3)cc(-c3ccc(NC(=O)Nc4cc(C(F)(F)F)ccn4)cc3F)c12 [Example 11, N-{4-[4-amino-7-(morpholin-4-ylmethyl)pyrrolo[2,1-f][1,2,4]triazin-5-yl]-3-fluorophenyl}-N′-[4-(trifluoromethyl)pyridin-2-yl]urea]
< 10 | Nc1ncnn2c(CN3CCOCC3)cc(-c3ccc(NC(=O)Nc4cc(C(F)(F)F)ccn4)nc3)c12 [Example 12, N-{5-[4-amino-7-(morpholin-4-ylmethyl)pyrrolo[2,1-f][1,2,4]triazin-5-yl]pyridin-2-yl}-N′-[4-(trifluoromethyl)pyridin-2-yl]urea]
> 100 | Nc1ncnn2c(CN3CCOCC3)cc(-c3cc(F)c(NC(=O)Nc4cc(C(F)(F)F)ccn4)c(F)c3)c12 [Example 14, N-{4-[4-amino-7-(morpholin-4-ylmethyl)pyrrolo[2,1-f][1,2,4]triazin-5-yl]-2,6-difluorophenyl}-N′-[4-(trifluoromethyl)pyridin-2-yl]urea]
< 10 | Cc1cc(-c2cc(CN3CCOCC3)n3ncnc(N)c23)ccc1NC(=O)Nc1cc(C(F)(F)F)ccn1 [Example 26, N-{4-[4-amino-7-(morpholin-4-ylmethyl)pyrrolo[2,1-f][1,2,4]triazin-5-yl]-2-methylphenyl}-N′-[4-(trifluoromethyl)pyridin-2-yl]urea]
< 10 | Cc1cc(NC(=O)Nc2cc(C(F)(F)F)ccc2F)ccc1-c1cc(CN2CCOCC2)n2ncnc(N)c12 [Example 29, N-{4-[4-amino-7-(morpholin-4-ylmethyl)pyrrolo[2,1-f][1,2,4]triazin-5-yl]-3-methylphenyl}-N′-[2-fluoro-5-(trifluoromethyl)phenyl]urea]
10 to 100 | COc1cc(-c2cc(CN3CCOCC3)n3ncnc(N)c23)ccc1NC(=O)Nc1cc(C(F)(F)F)ccn1 [Example 31, N-{4-[4-amino-7-(morpholin-4-ylmethyl)pyrrolo[2,1-f][1,2,4]triazin-5-yl]-2-methoxyphenyl}-N′-[4-(trifluoromethyl)pyridin-2-yl]urea]
10 to 100 | COc1cc(NC(=O)Nc2cc(C(F)(F)F)ccc2F)ccc1-c1cc(CN2CCOCC2)n2ncnc(N)c12 [Example 37, N-{4-[4-amino-7-(morpholin-4-ylmethyl)pyrrolo[2,1-f][1,2,4]-triazin-5-yl]-3-methoxyphenyl}-N′-[2-fluoro-5-(trifluoromethyl)phenyl]urea]
10 to 100 | COc1cc(NC(=O)Nc2cc(C(F)(F)F)ccn2)ccc1-c1cc(CN2CCOCC2)n2ncnc(N)c12 [Example 38, N-{4-[4-amino-7-(morpholin-4-ylmethyl)pyrrolo[2,1-f][1,2,4]triazin-5-yl]-3-methoxyphenyl}-N′-[4-(trifluoromethyl)pyridin-2-yl]urea]

Same assay, conditions: upper bound of the bin 'greater than 100 nM but less than 1 μM' (lower bound in E1)

IC50 [nM] | SMILES
< 1000 | Nc1ncnn2c(CN3CCOCC3)cc(-c3cc(F)c(NC(=O)Nc4cc(C(F)(F)F)ccc4F)c(F)c3)c12 [Example 7, N-{4-[4-amino-7-(morpholin-4-ylmethyl)-pyrrolo[2,1-f][1,2,4]triazin-5-yl]-2,6-difluorophenyl}-N′-[Z-fluoro-5-(trifluoro-methyl)phenyl]urea]
< 1000 | Nc1ncnn2c(CN3CCOCC3)cc(-c3cc(F)c(NC(=O)Nc4cc(C(F)(F)F)ccn4)c(F)c3)c12 [Example 14, N-{4-[4-amino-7-(morpholin-4-ylmethyl)pyrrolo[2,1-f][1,2,4]triazin-5-yl]-2,6-difluorophenyl}-N′-[4-(trifluoromethyl)pyridin-2-yl]urea]
